In patent US20240182470A1, “KRASG12C MUTANT PROTEIN INHIBITOR, PREARATION AND USE THEREOF” (YA THERAPEUTICS INC, priority 2021, published 2024):

These compounds were tested on H358 (KRAS G12C mutant) cells (assay: Tumor cell proliferation inhibition assay (Cell Titer-Glo, 72 h)). Conditions: inhibition of tumor cell proliferation, 72 hours with compound, 10% fetal bovine serum; read-out: NCI-H538 IC50(nm).
Assay type: cell-based
Procedure: The H358 (KRAS G^12C mutant) cells were digested, centrifuged and resuspended, and the cell density was measured with a Scepter automatic cell counter. The cells were diluted to a solution containing 44,000 cells per milliliter, and the density-adjusted cell solution was 90 microliters per well. into a 96-well culture plate. The 96-well plate was placed in a 37° C., 5% CO2 incubator. After the cells were cultured for 24 hours, different concentrations of the compounds to be tested were added. The cells were incubated with the compounds for 72 hours in the presence of 10% fetal bovine serum. Glo Luminescent Cell Viability Assay Kit (see manufacturer's instructions for details) was used to measure ATP content to assess cell growth inhibition. Briefly, 30 μl of Cell Titer-Glo reagent was added to each well, and the plate was shaken for 10 minutes to induce cell lysis. Fluoroskan
Ascent FL (Thermo) assay was used to record the fluorescent signal, and the maximum signal value was obtained from cells treated with dimethyl sulfoxide for 72 hours. The minimum signal value was obtained from the medium alone (the number of cells was zero), and the % inhibition rate=(the maximum signal value compound signal value)/(the maximum signal value—the minimum signal value×100%, and the data were processed using Graphpadprism 5 software. By sigmoid Dose-response curve fitting to calculate the IC50 value. “A” means IC50≤50 nM; “B” means 50<IC50≤500 nM; “C” means 500<IC50≤2000 nM; “D” means 2000 nM<IC50

Compound | IC50
7-(8-Methylnaphthyl)-6-fluoro-4-(((R)-4-acryloyl-2-methylpiperazine)-1-yl)-1-y1)-2-(((S)-2,2-difluorotetrahydro-1H-pyrincyclo-7a(5H)-yl)methoxy)pyridine[2,3-d]lopyrimidine [Compound 80] | ≤ 50 nM
7-(8-Methylnaphthyl)-6-fluoro-4-(((R)-4-acryloyl-2-methylpiperazine)-1-yl)-2-(((2R,7aS)-2-fluorotetrahydro-1H-pyrincyclo-7a(5H)-yl)methoxy)pyridine[2,3-d]lopyrimidine [Compound 81] | ≤ 50 nM
7-(8-Methylnaphthyl)-6-fluoro-4-(((S)-4-(2-fluoro acryloyl)-3-carbonitrileethylpiperazine)-1-yl)-2-(((S)-2,2-difluorotetrahydro-1H-pyrincycl-7a(5H)-yl)methoxy)pyridine[2,3-d]lopyrimidine [Compound 85] | ≤ 50 nM
7-(8-Methylnaphthyl)-6-fluoro-4-(((S)-4-(2-fluoroacryloyl)-3-carbonitrileethylpiperazine)-1-yl)-2-(((2R,7aS)-2-fluorotetrahydro-1H-pyrinyl-7a(5H)-yl)methoxy)pyridine[2,3-d]lopyrimidine [Compound 82] | ≤ 50 nM
7-(8-Methylnaphthyl)-8-fluoro-4-(((R)-4-acryloyl-2-methylpiperazine)-1-yl)-2-(((2R,7aS)tetrakishydrogen-1H-pyrinyl-7a(5H)-yl)methoxy)quinazoline [Compound 61] | ≤ 50 nM
7-(8-Methylnaphthyl)-8-fluoro-4-(((R)-4-acryloyl-2-methylpiperazine)-1-yl)-2-(((S)-2,2-difluorotetrahydro-1H-pyrinyl-7a(5H)-yl)methoxy)quinazoline [Compound 62] | ≤ 50 nM
7-(8-Methylnaphthyl)-8-fluoro-4-(((S)-4-(2-fluoroacryloyl)-3-carbonitrileethylpiperazine)-1-yl)-2-(((S)-2,2-difluorotetrahydro-1H-pyrincyclo-7a(5H)-yl)methoxy)quinazoline [Compound 72] | ≤ 50 nM
7-(8-fluoronaphthyl)-8-fluoro-4-(((R)-4-acryloyl-2-methylpiperazine)-1-yl)-2-(((S)-2,2-difluorotetrahydro-1H-pyrincyclo-7a(5H)-yl)methoxy)quinazoline [Compound 59] | ≤ 50 nM
7-(8-fluoronaphthyl)-8-fluoro-4-(((S)-4-(2-fluoroacryloyl)-3-carbonitrileethylpiperazine)-1-yl)-2-(((2R,7aS)-2-fluorotetrahydro-1H-pyrinyl-7a(5H)-yl)methoxy)quinazoline [Compound 51] | ≤ 50 nM
C=C(F)C(=O)N1CCN(c2cc(OC[C@@H]3CCCN3C)nc3nc(-c4cccc5cccc(F)c45)c(F)cc23)C[C@@H]1CC#N [Compound 6] | ≤ 50 nM
C=C(F)C(=O)N1CCN(c2cc(OC[C@@H]3CCCN3C)nc3nc(-c4cccc5cccc(F)c45)c(F)cc23)[C@H](C)C1 [Compound 8] | ≤ 50 nM
C=CC(=O)N1CCN(c2nc(OC[C@@H]3CCCN3C)nc3nc(-c4cccc5cccc(F)c45)c(F)cc23)[C@@H](C)C1 [Compound 10] | ≤ 50 nM
C=CC(=O)N1CCN(c2nc(OC[C@@H]3CCCN3C)nc3nc(-c4c(O)cccc4F)c(F)cc23)[C@@H](C)C1 [Compound 12, 7-(2-Fluoro-6-hydroxyphenyl)-6-fluoro-4-(((S)-4-(2-acryloyl)-2-methylpiperazine)-1-yl)-2-(((S)-1-(methyl-d3)pyrrolidin-2-yl)methoxy)pyridine[2,3-d]lopyrimidine] | 500 to 2000 nM
C=CC(=O)N1CCN(c2nc(OC[C@@]34CCCN3C[C@H](F)C4)nc3nc(-c4cccc5cccc(F)c45)c(F)cc23)C[C@H]1CC#N [Compound 25, 7-(8-Fluoronaphthyl)-6-fluoro-4-(((R)-4-acryloyl-3-carbonitrileethylpiperazine)-1-yl)-2-(((2R,7aS)-2-fluorotetrahydro-1H-pyrincycl-7a(5H)-yl)methoxy)pyridine[2,3-d]lopyrimidine] | ≤ 50 nM
C=CC(=O)N1CCN(c2nc(OC[C@@]34CCCN3C[C@H](F)C4)nc3nc(-c4cccc5cccc(F)c45)c(F)cc23)[C@H](C)C1 [Compound 26, 7-(8-Fluoronaphthyl)-6-fluoro-4-(((R)-4-acryloyl-2-methylpiperazine)-1-yl)-2-(((2R,7aS)-2-Fluorotetrahydro-1H-pyrincycl-7a(5H)-yl)methoxy)pyridine[2,3-d]lopyrimidine] | ≤ 50 nM
C=CC(=O)N1C2CCC1CN(c1nc(OC[C@@]34CCCN3C[C@H](F)C4)nc3nc(-c4cccc5cccc(F)c45)c(F)cc13)C2 [Compound 27] | ≤ 50 nM
C=C(F)C(=O)N1CCN(c2nc(OC[C@@]34CCCN3C[C@H](F)C4)nc3nc(-c4cccc5cccc(F)c45)c(F)cc23)C[C@@H]1CC#N [Compound 29] | ≤ 50 nM
C=C(F)C(=O)N1CCN(c2nc(OC[C@@]34CCCN3C[C@H](F)C4)nc3nc(-c4cccc5cccc(F)c45)c(F)cc23)[C@H](C)C1 [Compound 30] | ≤ 50 nM
C=C(F)C(=O)N1C2CCC1CN(c1nc(OC[C@@]34CCCN3C[C@H](F)C4)nc3nc(-c4cc(O)cc5cccc(F)c45)c(F)cc13)C2 [Compound 32, 7-(3-Hydroxy-8-fluoronaphthyl)-6-fluoro-4-(8-(2-fluoroacryloyl)-3,8-diazabicyclo[3.2.1]octan-3-yl)-2-(((2R,7aS)-2-fluorotetrahydro-1H-pyrincycl-7a(5H)-yl)methoxy)pyridine[2,3-d]lopyrimidine] | ≤ 50 nM
C=C(F)C(=O)N1CCN(c2nc(OC[C@@]34CCCN3C[C@H](F)C4)nc3nc(-c4cc(O)cc5cccc(F)c45)c(F)cc23)C[C@@H]1CC#N [Compound 33, 7-(3-Hydroxy-8-fluoronaphthyl)-6-fluoro-4-(((S)-4-(2-fluoroacryloyl)-3-carbonitrileethylpiperazine)-1-yl)-2-(((2R,7aS)-2-fluorotetrahydro-1H-pyrincycl-7a(5H)-yl)methoxy)pyridine[2,3-d]lopyrimidine] | ≤ 50 nM
C=C(F)C(=O)N1CCN(c2nc(OC[C@@]34CCCN3C[C@H](F)C4)nc3nc(-c4cc(O)cc5cccc(F)c45)c(F)cc23)[C@H](C)C1 [Compound 34, 7-(3-Hydroxy-8-fluoronaphthyl)-6-fluoro-4-(((R)-4-(2-fluoroacryloyl)-2-methylpiperazine)-1-yl)-2-(((2R,7aS)-2-fluorotetrahydro-1H-pyrincyclin-7a(5H)-yl)methoxy)pyridine[2,3-d]lopyrimidine] | ≤ 50 nM
C=CC(=O)N1CCN(c2nc(OC[C@@]34CCCN3C[C@H](F)C4)nc3nc(-c4cc(O)cc5cccc(F)c45)c(F)cc23)C[C@@H]1CC#N [Compound 35, 7-(3-Hydroxy-8-fluoronaphthyl)-6-fluoro-4-(((S)-4-acryloyl-3-carbonitrileethylpiperazine)-1-yl)-2-(((2R,7aS)-2-fluorotetrahydro-1H-pyrinyl-7a(5H)-yl)methoxy)pyridine[2,3-d]lopyrimidine] | ≤ 50 nM
C=CC(=O)N1CCN(c2nc(OC[C@@]34CCCN3C[C@H](F)C4)nc3nc(-c4cc(O)cc5cccc(F)c45)c(F)cc23)[C@H](C)C1 [Compound 36, 7-(3-Hydroxy-8-fluoronaphthyl)-6-fluoro-4-(((R)-4-acryloyl-2-methylpiperazine)-1-yl)-2-(((2R,7aS)-2-fluorotetrahydro-1H-pyrincyclo-7a(5H)-yl)methoxy)pyridine[2,3-d]lopyrimidine] | ≤ 50 nM
C=C(F)C(=O)N1CCN(c2nc(OC[C@@]34CCCN3C[C@H](F)C4)nc3c(F)c(-c4cccc5cccc(F)c45)c(Cl)cc23)[C@H](C)C1 [Compound 38, 6-Chloro-7-(8-fluoronaphthyl)-8-fluoro-4-(((R)-4-(2-fluoroacryloyl)-2-methylpiperazine)-1-yl)-2-(((2R,7aS)-2-fluorotetrahydro-1H-pyrinyl-7a(5H)-yl)methoxy)quinazoline] | ≤ 50 nM
C=C(F)C(=O)N1C2CCC1CN(c1nc(OC[C@@]34CCCN3C[C@H](F)C4)nc3c(F)c(-c4cccc5cccc(F)c45)c(Cl)cc13)C2 [Compound 39, 6-Chloro-7-(8-fluoronaphthyl)-8-fluoro-4-(8-(2-fluoroacryloyl)-3,8-diazabicyclo[3.2.1]octan-3-yl)-2-(((2R,7aS)-2-fluorotetrahydro-1H-pyrincycline-7a(5H)-yl)methoxy)quinazoline] | ≤ 50 nM
C=CC(=O)N1CCN(c2nc(OC[C@@]34CCCN3C[C@H](F)C4)nc3c(F)c(-c4cccc5cccc(F)c45)c(Cl)cc23)C[C@@H]1CC#N [Compound 40, 6-Chloro-7-(8-fluoronaphthyl)-8-fluoro-4-(((S)-4-acryloyl-3-carbonitrileethylpiperazine)-1-yl)-2-(((2R,7aS)-2-fluorotetrahydro-1H-pyrinyl-7a(5H)-yl)methoxy)quinazoline] | ≤ 50 nM
C=C(F)C(=O)N1CCN(c2nc(OC[C@@]34CCCN3C[C@H](F)C4)nc3c(F)c(-c4cccc5cccc(F)c45)c(Cl)cc23)C[C@@H]1CC#N [Compound 41, 6-Chloro-7-(8-fluoronaphthyl)-8-fluoro-4-(((S)-4-(2-fluoroacryloyl)-3-carbonitrileethylpiperazine)-1-yl)-2-(((2R,7aS)-2-fluorotetrahydro-1H-pyrincycline-7a(5H)-yl)methoxy)quinazoline] | ≤ 50 nM
